Reference: article PMC7272617 (Scientific Reports, 2020)
≈ marks a conversion by molar mass, not a printed value. Where “and” joins values, the source holds several entries; their conditions need not be identical. Equal values may be shown once. Where a SMILES comes first, the peptide text is derived from it.

Assays:
[1] = system: MDR P. aeruginosa clinical isolate No.5; details: MDR clinical isolate No.5, 24 h
[2] = system: Acinetobacter baumannii MT strain; details: MT strain, 24 h
[3] = system: MDR P. aeruginosa clinical isolate No.1
LPS from E. coli O111:B4 = test: LPS binding, chromogenic limulus amebocyte lysate (LAL) assay; design: species or system Escherichia coli; details: 1 EU/mL LPS, 1 × to 32 × MIC, 37 °C, 30 min; result in words
Procedure: The ability of PA-13 to bind LPS was assessed using a quantitative, chromogenic limulus amebocyte lysate (LAL) according to the manufacturer’s instructions (Thermo Scientific). The LAL test is a sensitive indicator of the presence of free or non-neutralized endotoxin[30]. Stock solutions of peptide were prepared in endotoxin-free water provided with the kit. […] LAL reagent was added and incubated for 10 min at 37 °C, followed by addition of a colorless substrate and incubation for a further 6 min. The reaction was stopped with 25% (vol/vol) glacial acetic acid and the release of p-nitroaniline followed by absorbance at 405 nm. Endotoxin-free water served as a negative control (blank) and was considered 0% LPS binding. After blank subtraction, the percentage of LPS binding was calculated according to the following equation: %LPSbinding=(ODUntreated-ODTreated)/ODUntreated×100

[4] = system: MDR P. aeruginosa clinical isolate No.9; details: MDR clinical isolate No.9, 24 h
P. aeruginosa ATCC 27853 [5] = test: Membrane-penetrating activity of TAMRA-labelled peptide, flow cytometry; format: cell-based, Pseudomonas aeruginosa; details: 1 × MIC, measured with TAMRA-labelled PA-13
Procedure: To clarify whether bacterial membrane permeabilization resulted from peptide uptake, the interaction of TAMRA-labelled PA-13 with the membrane of bacteria cells was investigated by flow cytometry. […] After incubation, unbound labelled peptide was removed by washing with PBS. Then the fluorescence signal from treated cells was determined by flow cytometry (CytoFlex, Beckman Coulter).

[6] = system: MDR P. aeruginosa clinical isolate No.3; details: MDR clinical isolate No.3, 24 h
[7] = system: Enterococcus faecalis ATCC 29212; details: ATCC 29212, 24 h
human TLR4 (hTLR4) = test: LPS-mediated TLR4 activation, HEK-Blue hTLR4 SEAP reporter; format: cell-based; details: 250 ng/ml LPS of P. aeruginosa serotype 10, 0.98-250 µg/ml peptide, 16 h; result in words
Procedure: Stimulation with LPS activates NF-kB and AP-1, inducing the production of SEAP. Opposing this, the peptide can interact with LPS and inhibit TLR4 signal transduction, and so decrease production of SEAP. The hydrolysis of substrate by SEAP produces a purple/blue color.
Briefly, HEK-Blue hTLR4 cells (3 × 10^4 cells/well) were seeded in 96-well plates and incubated at 37 °C in an air atmosphere containing 5% CO2 for 24 h. These cells were further incubated with 250 ng/ml LPS of P. aeruginosa serotype 10 (Sigma) and different concentrations of PA-13 (0.98-250 µg/ml) for 16 h. After incubation, supernatants were collected and incubated with QUANTI-Blue™ (InvivoGen). The absorbance of SEAP was monitored at 620 nm. The results were calculated from at least three independent experiments.

P. aeruginosa ATCC 27853 [8] = test: Membrane permeability (PI) and depolarization (BOX), flow cytometry; format: cell-based, Pseudomonas aeruginosa; details: for permeabilized and depolarized cells: 0.5 × MIC; for cell population BOX+PI- / cell population BOX-PI+ / cell population BOX-PI- / permeabilized and depolarized cells (BOX+PI+): 1 × MIC; for permeabilized and depolarized cells (BOX+PI+): 37 °C, triplicate
Procedure: Their outer and inner membranes provide important protection for Gram-negative bacteria. To assess membrane permeability and depolarization induced by PA-13, the DNA intercalating dyes propidium iodide (PI) and bis-(1,3-dibutylbarbituric acid) trimethine oxonol (BOX) were used as previously described. The fluorescence conferred by these dyes is generally associated with the loss of membrane integrity and potential, respectively.
Briefly, P. aeruginosa ATCC 27853 was cultured to mid-logarithmic phase and harvested by centrifugation at 2,000 × g for 5 min. The bacterial cells were washed thrice with PBS and diluted to 10^7 CFU/ml in 50 ml of PBS. […] Bacterial pellets were harvested and washed with PBS by centrifugation at 10,000 × g for 10 min. […] Untreated bacterial cells (no peptide) served as a negative control, whereas bacterial cells treated with melittin served as a positive control. Data was recorded using a flow cytometer (CytoFlex, Beckman Coulter) at a laser excitation wavelength of 488 nm. Forward scatter (FS), side scatter (SS), green fluorescence (530/30 nm) from BOX and red fluorescence (585/42 nm) emitted by PI were collected using logarithmic scales. 25,000 cells, defined according to their scatter parameters, were counted in each sample. The experiments were performed in triplicate and the data was analyzed using Kaluza software.

[9] = system: L929 mouse fibroblast cells; test: Cytotoxicity, MTT viability assay; details: 3.91 µg/ml, 24 h
[10] = system: Listeria monocytogenes 10403 s; details: 10403 s, 24 h
[11] = system: MDR P. aeruginosa clinical isolate No.10; details: MDR clinical isolate No.10, 24 h
[12] = system: Escherichia coli O157:H7 MT strain; details: E. coli O157:H7 MT strain; MHB, 37 °C, 24 h

## CC[C@H](C)[C@H](NC(=O)[C@H](CCCNC(=N)N)NC(=O)[C@H](CCCCN)NC(=O)[C@H](C)NC(=O)[C@@H](NC(=O)[C@@H](N)CCCCN)[C@@H](C)CC)C(=O)N[C@@H](Cc1c[nH]c2ccccc12)C(=O)N[C@@H](CCCCN)C(=O)N[C@H](C(=O)N[C@@H](CC(C)C)C(=O)N[C@@H](CCCNC(=N)N)C(=O)N[C@@H](CCCNC(=N)N)C(=O)N[C@@H](CCCNC(=N)N)C(N)=O)[C@@H](C)CC [PA-13] (H-KIAKRIWKILRRR-NH2; N-terminus assumed)
[1]
  MIC: 7.81 µg/mL (≈ 4.5 µM)
[2]
  MIC: 7.81 µg/mL (≈ 4.5 µM)
[3]
  MIC: 3.91 µg/mL (≈ 2.25 µM)
LPS from E. coli O111:B4
  LPS binding activity: dose-dependent LPS binding activity
[4]
  MIC: 7.81 µg/mL (≈ 4.5 µM)
P. aeruginosa ATCC 27853 [5]
  time to binding and penetration: ≤ 5 min
[6]
  MIC: 7.81 µg/mL (≈ 4.5 µM)
[7]
  MIC: 250 µg/mL (≈ 144 µM)
Human TLR4 (hTLR4)
  inhibition of LPS-mediated TLR4 activation: dose-dependent inhibition
P. aeruginosa ATCC 27853 [8]; 15 min
  permeabilized and depolarized cells: 72.75 ± 1.08%
  cell population BOX+PI-: 3.55%
  cell population BOX-PI+: 7.74%
  cell population BOX-PI-: 0.68%
  permeabilized and depolarized cells (BOX+PI+): 88.03 ± 3.02% and 88.03%
P. aeruginosa ATCC 27853 [8]; 30 min
  permeabilized and depolarized cells: 75.30 ± 2.68%
  cell population BOX+PI-: 5.74%
  cell population BOX-PI+: 3.61%
  cell population BOX-PI-: 0.96%
  permeabilized and depolarized cells (BOX+PI+): 89.69 ± 5.25% and 89.69%
P. aeruginosa ATCC 27853 [8]; 60 min
  permeabilized and depolarized cells: 81.66 ± 3.35%
  cell population BOX+PI-: 6.25%
  cell population BOX-PI+: 1.05%
  cell population BOX-PI-: 0.62%
  permeabilized and depolarized cells (BOX+PI+): 92.07 ± 5.15% and 92.07%
[9]
  L929 cell survival at the MIC: up to 90%
[10]
  MIC: 3.91 µg/mL (≈ 2.25 µM)
[11]
  MIC: 7.81 µg/mL (≈ 4.5 µM)
[12]
  MIC: 31.25 µg/mL (≈ 18 µM)
